Measured values as given in patent US5563125A, “5'-deoxy-5'-(substituted)alkylthioribose compounds and their pharmaceutical compositions” (priority 1992, dated 1996).

How the values were obtained:
[1] = test system: T. b. brucei procyclic trypanosomes (Lab 110 EATRO strain); experiment: In vitro antitrypanosomal activity, procyclic trypanosomes in T2 medium; format: cell-based, Trypanosoma brucei brucei; conditions: Trypanosoma brucei, 3-5 days
Method: The antitrypanosomal effects of HETA and other nucleosides were examined in the Lab 110 EATRO strain of T. b. brucei in culture.
Cells were cultured as described in Bacchi et al. Exp. Parasitol. 68, 392, 1989. Cells were then grown in the presence of the compounds for 3-5 days. Drugs were filtered, sterilized and added aseptically. Control cells achieved a maximum density of 1.5-3.5×10^7 /ml. Hemocytometer counts were made daily and the results were expressed as a percent of control growth. IC50 plots were obtained by graphing log (drug) vs. percent growth inhibition.
Trypanocidal Activity of MTA and MTR Analogs
against T. b. brucei procyclic trypanosomes in T2 medium.

[2] = test system: CCRF-CEM cells (MTA phosphorylase-deficient); experiment: Growth inhibition of CCRF-CEM cells; format: cell-based, human; conditions: Homo sapiens, 96 h
Method: L1210, L5178Y and MOLT-4 cell lines were grown in RPMI 1640 and 10% Nu Serum (Collaborative Research Inc., Lexington, Mass.) and CCRF-CEM cells were grown in 10% Horse Serum (Gibco Laboratories, Grand Island, N.Y.) and maintained as previously described for suspension cultures by Pera et al. in Cancer Res. 46, 1148, 1986. Cell cultures (0.3×10^5 cells/ml) were treated with each compound at 0.1 to 1000 μM to determine the concentration that inhibited growth by 50% (IC50) at 48 hr for the L1210 and L5178Y cells and at 96 hr for the CCRF-CEM and MOLT-4 cells. The incubation times allowed approximately 4 cell doublings in each cell line. All compounds were freshly prepared prior to treatment by dissolving in DMSO and diluting in serum-free media. Cells were counted by electron particle counting (Model XF' Coulter Counter; Coulter Electronics, Hialeah, Fla.).
For each compound, the concentrations required to inhibit cell growth by 50% (IC50 values) are shown in Table 7 for two murine leukemic cell lines, L1210 and L5178Y [MTA phosphorylase-deficient and MTA phosphorylase-containing, respectively] and two human leukemic cell lines, CCRF-CEM and MOLT-4 [MTA phosphorylase-deficient and MTA phosphorylase-containing, respectively]. ETA, MFETA, HETA and PTA had lower IC50 values in the L5178Y cells than in the L1210 cells. […] This differential is consistent with the possibility that, in L5178Y cells, MFETA is cleaved by MTA phosphorylase to the growth inhibitory metabolite, 5-monofluoroethylthioribose-1-phosphate (MFETR-1-P).

L1210 leukemic cells = experiment: Antitumor effects in L1210 leukemic mice; format: in vivo, DBA/2N mice
Method: (§1) The antitumor effects of MFETA were evaluated in DBA/2N mice (Charles River) who received i.p. transplants of 10^6 L1210 leukemic cells or 10^6 L5178Y leukemic cells on day 0 according to protocols described previously by Bernacki et al., Cancer Res. 47, 799, 1987. The increase in life span (% ILS) of treated animals relative to untreated, tumor-bearing animals was used as the measure of their therapeutic effectiveness at specified dose regimens.
(§2) ^a MFETA was administered i.p. on days 1, 2, 3, 4, 5 following i.p.
(§3) implantation of 10^6 tumor cells on day 0.
(§4) ^b % ILS is the percentage of increase in life span.

L5178Y leukemic cells = experiment: Antitumor effects in L5178Y leukemic mice; format: in vivo, DBA/2N mice
Method: as §1, §2, §3, §4

[3] = test system: A549 (human non-small cell lung carcinoma); experiment: In vitro evaluation, A549; format: cell-based; conditions: A549, medium B, 72 hours, solvent DMSO
Method: (§5) In vitro evaluations of the compound 5'-deoxy-5'-(monofluoroethylthio) adenosine (MFETA) were performed using the materials and conditions described in Tables 9 and 10.
(a) Basal medium + RPMI 1640 + 20 mM HEPES;
B--5% NuSerum IV + 5% FCS,
*Incubation or exposure time is determined by the doubling time of the
cell line such that each is exposed to the compound for 3-4 cell

Ebey (human melanoma) = experiment: In vitro evaluation, Ebey; format: cell-based; conditions: medium B, 72 hours
Method: as §5
(§6) ^(a) Basal medium = RPMI 1640 + 20 mM HEPES + 2 mM Lglutamine
(§7) B = 5% FCS + 5% NuSerum IV

SH-1 (human melanoma) = experiment: In vitro evaluation, SH-1; format: cell-based; conditions: SH-1, medium B, 72 hours
Method: as §5, §6, §7

STO-1 (human melanoma) = experiment: In vitro evaluation, STO-1; format: cell-based; conditions: STO-1, medium B, 72 hours
Method: as §5, §6, §7

Nc1ncnc2c1ncn2[C@@H]1O[C@H](CSCCF)[C@@H](O)[C@H]1O [MFETA, 5'-deoxy-5'-(monofluoroethylthio)adenosine]
IC50 [1]: 5 µM
IC50 [2]: 75 ± 20 µM
% ILS (percentage of increase in life span) (L1210 leukemic cells; L1210, 10 mg/kg i.p. days 1-5): 14%
Mean Death Weight (L1210 leukemic cells; L1210, 10 mg/kg i.p. days 1-5): 23.7 g
Survival Mean ± SD (L1210 leukemic cells; L1210, 10 mg/kg i.p. days 1-5): 7.2 ± 0.5 days
Survival Median (L1210 leukemic cells; L1210, 10 mg/kg i.p. days 1-5): 8 days
Survival Range (L1210 leukemic cells; L1210, 10 mg/kg i.p. days 1-5): 6 to 8 days
% ILS (percentage of increase in life span) (L1210 leukemic cells; L1210, 50 mg/kg i.p. days 1-5): 14%
Mean Death Weight (L1210 leukemic cells; L1210, 50 mg/kg i.p. days 1-5): 24.5 g
Survival Mean ± SD (L1210 leukemic cells; L1210, 50 mg/kg i.p. days 1-5): 7.8 ± 0.2 days
Survival Median (L1210 leukemic cells; L1210, 50 mg/kg i.p. days 1-5): 8 days
Survival Range (L1210 leukemic cells; L1210, 50 mg/kg i.p. days 1-5): 7 to 8 days
% ILS (percentage of increase in life span) (L1210 leukemic cells; L1210, 100 mg/kg i.p. days 1-5): 14%
Mean Death Weight (L1210 leukemic cells; L1210, 100 mg/kg i.p. days 1-5): 22.8 g
Survival Mean ± SD (L1210 leukemic cells; L1210, 100 mg/kg i.p. days 1-5): 7.9 ± 0.2 days
Survival Median (L1210 leukemic cells; L1210, 100 mg/kg i.p. days 1-5): 8 days
Survival Range (L1210 leukemic cells; L1210, 100 mg/kg i.p. days 1-5): 7 to 9 days
% ILS (percentage of increase in life span) (L1210 leukemic cells; L1210, 200 mg/kg i.p. days 1-5): 28%
Mean Death Weight (L1210 leukemic cells; L1210, 200 mg/kg i.p. days 1-5): 18.4 g
Survival Mean ± SD (L1210 leukemic cells; L1210, 200 mg/kg i.p. days 1-5): 8.8 ± 0.8 days
Survival Median (L1210 leukemic cells; L1210, 200 mg/kg i.p. days 1-5): 9 days
Survival Range (L1210 leukemic cells; L1210, 200 mg/kg i.p. days 1-5): 6 to 11 days
% ILS (percentage of increase in life span) (L1210 leukemic cells; L1210, 300 mg/kg i.p. days 1-5): -72%
Mean Death Weight (L1210 leukemic cells; L1210, 300 mg/kg i.p. days 1-5): 18.8 g
Survival Mean ± SD (L1210 leukemic cells; L1210, 300 mg/kg i.p. days 1-5): 2.2 ± 0.2 days
Survival Median (L1210 leukemic cells; L1210, 300 mg/kg i.p. days 1-5): 2 days
Survival Range (L1210 leukemic cells; L1210, 300 mg/kg i.p. days 1-5): 2 to 3 days
% ILS (percentage of increase in life span) (L5178Y leukemic cells; 10 mg/kg i.p. days 1-5): 12%
Mean Death Weight (L5178Y leukemic cells; 10 mg/kg i.p. days 1-5): 19.7 g
Survival Mean ± SD (L5178Y leukemic cells; 10 mg/kg i.p. days 1-5): 9.0 ± 3 days
Survival Median (L5178Y leukemic cells; 10 mg/kg i.p. days 1-5): 9 days
Survival Range (L5178Y leukemic cells; 10 mg/kg i.p. days 1-5): 8 to 10 days
% ILS (percentage of increase in life span) (L5178Y leukemic cells; 50 mg/kg i.p. days 1-5): 37%
Mean Death Weight (L5178Y leukemic cells; 50 mg/kg i.p. days 1-5): 21.6 g
Survival Mean ± SD (L5178Y leukemic cells; 50 mg/kg i.p. days 1-5): 10.0 ± 6 days
Survival Median (L5178Y leukemic cells; 50 mg/kg i.p. days 1-5): 11 days
Survival Range (L5178Y leukemic cells; 50 mg/kg i.p. days 1-5): 8 to 11 days
% ILS (percentage of increase in life span) (L5178Y leukemic cells; 100 mg/kg i.p. days 1-5): 37%
Mean Death Weight (L5178Y leukemic cells; 100 mg/kg i.p. days 1-5): 23.1 g
Survival Mean ± SD (L5178Y leukemic cells; 100 mg/kg i.p. days 1-5): 10.5 ± 4 days
Survival Median (L5178Y leukemic cells; 100 mg/kg i.p. days 1-5): 11 days
Survival Range (L5178Y leukemic cells; 100 mg/kg i.p. days 1-5): 8 to 12 days
% ILS (percentage of increase in life span) (L5178Y leukemic cells; 200 mg/kg i.p. days 1-5): 62%
Mean Death Weight (L5178Y leukemic cells; 200 mg/kg i.p. days 1-5): 20.4 g
Survival Mean ± SD (L5178Y leukemic cells; 200 mg/kg i.p. days 1-5): 12.4 ± 9 days
Survival Median (L5178Y leukemic cells; 200 mg/kg i.p. days 1-5): 13 days
Survival Range (L5178Y leukemic cells; 200 mg/kg i.p. days 1-5): 9 to 14 days
% ILS (percentage of increase in life span) (L5178Y leukemic cells; 300 mg/kg i.p. days 1-5): -75%
Mean Death Weight (L5178Y leukemic cells; 300 mg/kg i.p. days 1-5): 18.4 g
Survival Mean ± SD (L5178Y leukemic cells; 300 mg/kg i.p. days 1-5): 2.6 ± 4 days
Survival Median (L5178Y leukemic cells; 300 mg/kg i.p. days 1-5): 2 days
Survival Range (L5178Y leukemic cells; 300 mg/kg i.p. days 1-5): 2 to 4 days
IC50 [3]: 346 µM
IC50 (Ebey (human melanoma)): 442 ± 13 µM
IC50 (SH-1 (human melanoma)): 319 ± 10 µM
IC50 (STO-1 (human melanoma)): 296 ± 9.9 µM
